Results reported in PubChem BioAssay AID1963845 (Molecular Pharmacology Branch, DTP, NCI, 2024).

System: 429239-143-T-J1-PDC complex spheroid viability
Assay: Anticancer human tumor 429239-143-T-J1-PDC patient-derived small cell lung carcinoma cell line growth inhibition [POLQ]
Conditions: for IC50: curve of first compound; for viability, T/C: stronger effect = lower value
In short: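 PDC + HUVEC + MSC complex spheroids; POLQ inhibitors ± partner drugs; top conc. at/near clinical Cmax, else 10 microM (SN-38 1 microM), half-log dilutions; 37 degrees C, 5% CO2.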

[1] = second compound 0.0316 µM, first compound 0.0316 µM
[2] = second compound 0.0316 µM, first compound 0.1 µM
[3] = second compound 0.1 µM, first compound 0.0316 µM
[4] = second compound 0.1 µM, first compound 0.1 µM
[5] = second compound 0.316 µM, first compound 0.0316 µM
[6] = second compound 0.316 µM, first compound 0.1 µM
[7] = second compound 1 µM, first compound 0.0316 µM
[8] = second compound 1 µM, first compound 0.1 µM
[9] = second compound 3.16 µM, first compound 0.0316 µM
[10] = second compound 3.16 µM, first compound 0.1 µM
[11] = second compound 10 µM, first compound 0.0316 µM
[12] = second compound 10 µM, first compound 0.1 µM
[13] = second compound 0.0316 µM, first compound 0.000316 µM
[14] = second compound 0.0316 µM, first compound 0.001 µM
[15] = second compound 0.0316 µM, first compound 0.00316 µM
[16] = second compound 0.0316 µM, first compound 0.01 µM
[17] = second compound 0.1 µM, first compound 0.000316 µM
[18] = second compound 0.1 µM, first compound 0.001 µM
[19] = second compound 0.1 µM, first compound 0.00316 µM
[20] = second compound 0.1 µM, first compound 0.01 µM
[21] = second compound 0.316 µM, first compound 0.000316 µM
[22] = second compound 0.316 µM, first compound 0.001 µM
[23] = second compound 0.316 µM, first compound 0.00316 µM
[24] = second compound 0.316 µM, first compound 0.01 µM
[25] = second compound 1 µM, first compound 0.000316 µM
[26] = second compound 1 µM, first compound 0.001 µM
[27] = second compound 1 µM, first compound 0.00316 µM
[28] = second compound 1 µM, first compound 0.01 µM
[29] = second compound 3.16 µM, first compound 0.000316 µM
[30] = second compound 3.16 µM, first compound 0.001 µM
[31] = second compound 3.16 µM, first compound 0.00316 µM
[32] = second compound 3.16 µM, first compound 0.01 µM
[33] = second compound 10 µM, first compound 0.000316 µM
[34] = second compound 10 µM, first compound 0.001 µM
[35] = second compound 10 µM, first compound 0.00316 µM
[36] = second compound 10 µM, first compound 0.01 µM
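Also: luminescence signal used as surrogate measure of viable cells; spheroids exposed to compounds for seven days before readout.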
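For viability, T/C in this document: 100% = DMSO vehicle control viability as luminescence relative to vehicle.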

## COc1ccc([C@@H](O)c2cc(-c3ncnc4cc(N5CCOCC5)ccc34)c(F)cc2Cl)nn1 + Cc1cccc(N(C)C(=O)C2C(O)CCN2c2nc(C)cc(C(F)(F)F)c2C#N)c1
Second compound 0.0316 µM
  IC50: 3250 nM
Second compound 0.1 µM
  IC50: 2790 nM
Second compound 0.316 µM
  IC50: 2480 nM
Second compound 1 µM
  IC50: 3320 nM
Second compound 3.16 µM
  IC50: 2880 nM
Second compound 10 µM
  IC50: 2490 nM
[1]
  viability, T/C: 103%
[2]
  viability, T/C: 95.7%
Second compound 0.0316 µM, first compound 0.316 µM
  viability, T/C: 94.4%
Second compound 0.0316 µM, first compound 1 µM
  viability, T/C: 70.4%
Second compound 0.0316 µM, first compound 3.16 µM
  viability, T/C: 53.5%
Second compound 0.0316 µM, first compound 10 µM
  viability, T/C: 10.8%
[3]
  viability, T/C: 101%
[4]
  viability, T/C: 107%
Second compound 0.1 µM, first compound 0.316 µM
  viability, T/C: 106%
Second compound 0.1 µM, first compound 1 µM
  viability, T/C: 80.7%
Second compound 0.1 µM, first compound 3.16 µM
  viability, T/C: 47.3%
Second compound 0.1 µM, first compound 10 µM
  viability, T/C: 9.36%
[5]
  viability, T/C: 105%
[6]
  viability, T/C: 94.5%
Second compound 0.316 µM, first compound 0.316 µM
  viability, T/C: 102%
Second compound 0.316 µM, first compound 1 µM
  viability, T/C: 90.1%
Second compound 0.316 µM, first compound 3.16 µM
  viability, T/C: 39.2%
Second compound 0.316 µM, first compound 10 µM
  viability, T/C: 14.3%
[7]
  viability, T/C: 105%
[8]
  viability, T/C: 95.9%
Second compound 1 µM, first compound 0.316 µM
  viability, T/C: 98.7%
Second compound 1 µM, first compound 1 µM
  viability, T/C: 82.3%
Second compound 1 µM, first compound 3.16 µM
  viability, T/C: 51.9%
Second compound 1 µM, first compound 10 µM
  viability, T/C: 9.82%
[9]
  viability, T/C: 99.5%
[10]
  viability, T/C: 98.8%
Second compound 3.16 µM, first compound 0.316 µM
  viability, T/C: 97.2%
Second compound 3.16 µM, first compound 1 µM
  viability, T/C: 79.5%
Second compound 3.16 µM, first compound 3.16 µM
  viability, T/C: 47.7%
Second compound 3.16 µM, first compound 10 µM
  viability, T/C: 8.69%
[11]
  viability, T/C: 122%
[12]
  viability, T/C: 86.7%
Second compound 10 µM, first compound 0.316 µM
  viability, T/C: 89.5%
Second compound 10 µM, first compound 1 µM
  viability, T/C: 64.3%
Second compound 10 µM, first compound 3.16 µM
  viability, T/C: 57.1%
Second compound 10 µM, first compound 10 µM
  viability, T/C: 8.38%

## CC[C@@]1(O)C(=O)OCc2c1cc1n(c2=O)Cc2cc3c(CN(C)C)c(O)ccc3nc2-1 + Nc1ccc(C#CCN(C(=O)Cc2ncc(C(F)(F)F)cc2C(F)(F)F)c2ccc(F)cc2)nn1
Second compound 0.0316 µM
  IC50: 16.9 nM
Second compound 0.1 µM
  IC50: 17.3 nM
Second compound 0.316 µM
  IC50: 17.9 nM
Second compound 1 µM
  IC50: 16.7 nM
Second compound 3.16 µM
  IC50: 17.7 nM
Second compound 10 µM
  IC50: 17.7 nM
[13]
  viability, T/C: 95.7%
[14]
  viability, T/C: 103%
[15]
  viability, T/C: 106%
[16]
  viability, T/C: 84.2%
[1]
  viability, T/C: 9.5%
[2]
  viability, T/C: 5.15%
[17]
  viability, T/C: 103%
[18]
  viability, T/C: 95.5%
[19]
  viability, T/C: 103%
[20]
  viability, T/C: 86.9%
[3]
  viability, T/C: 9.05%
[4]
  viability, T/C: 5.15%
[21]
  viability, T/C: 101%
[22]
  viability, T/C: 106%
[23]
  viability, T/C: 96.5%
[24]
  viability, T/C: 92.5%
[5]
  viability, T/C: 7.36%
[6]
  viability, T/C: 9.85%
[25]
  viability, T/C: 107%
[26]
  viability, T/C: 100%
[27]
  viability, T/C: 99.6%
[28]
  viability, T/C: 82.9%
[7]
  viability, T/C: 8.94%
[8]
  viability, T/C: 5.82%
[29]
  viability, T/C: 101%
[30]
  viability, T/C: 98%
[31]
  viability, T/C: 99.8%
[32]
  viability, T/C: 89.3%
[9]
  viability, T/C: 9.67%
[10]
  viability, T/C: 5.18%
[33]
  viability, T/C: 104%
[34]
  viability, T/C: 103%
[35]
  viability, T/C: 93.5%
[36]
  viability, T/C: 87.8%
[11]
  viability, T/C: 11.9%
[12]
  viability, T/C: 7.53%

## CC[C@@]1(O)C(=O)OCc2c1cc1n(c2=O)Cc2cc3c(CN(C)C)c(O)ccc3nc2-1 + COC1C(OC(N)=O)C(O)C(Oc2ccc3c(O)c(NC(=O)c4ccc(O)c(CC=C(C)C)c4)c(=O)oc3c2C)OC1(C)C
Second compound 0.0316 µM
  IC50: 13.5 nM
Second compound 0.1 µM
  IC50: 16 nM
Second compound 0.316 µM
  IC50: 15 nM
Second compound 1 µM
  IC50: 16.6 nM
Second compound 3.16 µM
  IC50: 13.6 nM
Second compound 10 µM
  IC50: 16.2 nM
[13]
  viability, T/C: 102%
[14]
  viability, T/C: 101%
[15]
  viability, T/C: 86.5%
[16]
  viability, T/C: 63%
[1]
  viability, T/C: 18.6%
[2]
  viability, T/C: 19.8%
[17]
  viability, T/C: 110%
[18]
  viability, T/C: 108%
[19]
  viability, T/C: 88.7%
[20]
  viability, T/C: 72.9%
[3]
  viability, T/C: 16.8%
[4]
  viability, T/C: 19%
[21]
  viability, T/C: 98.4%
[22]
  viability, T/C: 97.4%
[23]
  viability, T/C: 101%
[24]
  viability, T/C: 66.3%
[5]
  viability, T/C: 20.4%
[6]
  viability, T/C: 19.7%
[25]
  viability, T/C: 93.6%
[26]
  viability, T/C: 98%
[27]
  viability, T/C: 83.7%
[28]
  viability, T/C: 73.8%
[7]
  viability, T/C: 17.7%
[8]
  viability, T/C: 21.4%
[29]
  viability, T/C: 108%
[30]
  viability, T/C: 93.4%
[31]
  viability, T/C: 99.7%
[32]
  viability, T/C: 61.4%
[9]
  viability, T/C: 18.5%
[10]
  viability, T/C: 18.4%
[33]
  viability, T/C: 87.8%
[34]
  viability, T/C: 103%
[35]
  viability, T/C: 91.1%
[36]
  viability, T/C: 71.1%
[11]
  viability, T/C: 20.8%
[12]
  viability, T/C: 17.4%
